Source: patent publication EP2982682A1, “CHIMERIC PEPTIDE AND PHARMACEUTICAL COMPOSITION FOR TREATING ONCOLOGICAL DISEASES” (Obshestvo S Ogranichennoj Otvetstvennost`yu "Metamax", priority 2013, dated 2014)
Square brackets hold non-standard residues; d marks the D form. Ends that are not written are not given here. Ahx = NCCCCCC(=O)O

What was measured:
[1] = system: HCT116 (colon adenocarcinoma); experiment: Cytotoxic activity on proliferating cell lines, Annexin V/PI flow cytometry; assay type: cell-based, human; conditions: 5-40 µM, 24 hours
Procedure: (§1) We studied the effect of peptide sequences D37K, F26K-1, F26K-2, W26K-1, W26K-2 on the cells of transplanted cell cultures MCF-7 (breast cancer), A549 (lung adenocarcinoma), SKOV (ovarian cancer) and HCT116 (colon adenocarcinoma).
(§2) When preparing for the experiment the cells cultures were placed in 24-well plates in amount of 1 * 10^4 cells per well, incubated for 48 hours at 37°C and 5% CO2, medium DMEM (PanEco, Russia), containing glutamine, gentamicin, 10% PBS. After such incubation the cell cultures formed loose mono-layer. Experimental set-up: culture medium was replaced with the medium containing the study peptides in the concentrations of 5 µM, 10 µM, 20 µM, 40 µM; in the control samples the medium contained DMSO 20 µL to determine the effect of solvent (peptides were dissolved in DMSO). Incubation time was 24 hours. Then the cells were carefully removed from the matrix using trypsin (cells in the wells with peptides were attached stronger than the control sample), the medium was removed via centrifugation at 3,000 rounds for 7 minutes, supernatant fluid was removed and the staining was performed using double mark Annexin V/PI. Analysis was performed using flow cytometer and evaluated the number of cells including Annexin V - apoptosis, the number of cells including propidium iodide - dead cells, the number of intact cells - live cells.

MCF-7 (breast cancer) [2] = experiment: as above; assay type: cell-based; conditions: 5-40 µM, 24 hours
Procedure: as §1, §2

HCT-116 = experiment: Cytostatic effect: cell cycle phases on DNA-histograms after synchronization in G0/G1; assay type: cell-based, human
Procedure: (§3) Using cell lines MCF-7, HCT-116, A549 (lung adenocarcinoma) and SKOV (ovarian cancer) we studied the effect of the peptide sequences on the cells proliferative activity. The experiments involved synchronization of the cells in G0/G1-phase of the cells cycle using depleted culture medium. The cells in 24-well plate were held for 48 hours in the medium containing 0.5% PBS, then the synchronization block was removed via replacement of the medium with one containing 5% PBS and the study peptides in different concentrations. It was incubated for 24 hours, and then the cells were removed from the matrix using trypsin, washed in PSB, fixed in ethanol. Staining of samples, washing from ethanol in PBS using centrifugation, incubation with RNA-ase, staining with propidium iodide. Analysis was performed using flow cytometry, we evaluated the distribution of cells in the cell cycle phases on DNA-histograms using ModFit 3.0 software. For cells cultures MCF-7 and HCT-116 we studied the effect of 5 peptide sequences in concentrations of 10 and 40 µM. It was shown that the study sequences are able to decrease the proliferating activity of the dividing cells (Figure 9).

MCF-7 = experiment: as above; assay type: cell-based; conditions: 10 and 40 µM
Procedure: as §3

SKOV (ovarian cancer) = experiment: Cytostatic effect: cell cycle phases and hypodiploid peak on DNA-histograms after synchronization; assay type: cell-based; conditions: 5-40 µM, 24 hours
Procedure: as §3
When studying the effect of the peptide sequences on SKOV cells culture the incubation was performed with the sequences F26K-1, F26K-2, W26K-1, and W26K-2. […]

Bcl-2 in HCT-116 cells = experiment: Level of Bcl-2 in cells, antibody staining and flow cytometry; assay type: cell-based, human; conditions: 24 hours
Procedure: Example 4. Investigation of the peptide sequences effect on change in the level of Bcl-2 Monoclonal antibodies Anti Human Bcl-2 (Caltag Laboratories, USA) were used to estimated change in the level of Bcl-2 in HCT-116 cells when incubated with the study peptide sequence. The cells were transferred to a 24-well plate at 1 x 10^4 per well, grown for 48 hours under normal conditions (medium DMEM, 10%), then synchronized using the depleted medium containing 0.5% PBS for 48 hours. Upon removing the synchronizing block the medium containing 10% PBS was added to the cells, and the peptide sequences were studied at concentrations of 10 and 40 µM. Incubation with the peptides was performed for 24 hours, then the culture was removed with the help of trypsin, fixed for one hour with PBS containing 1% formaldehyde, and then fixed with ethanol. The staining and the analysis were performed according to the antibodies manufacturer's instructions. […] It is thereby shown that the apoptosis induced by introduction of the peptide sequences into the culture medium is explained by influence of the peptides on specific molecular processes of the cell.

pRb in MCF-7 = experiment: Level of underphosphorylated pRb by flow cytometry; assay type: cell-based; conditions: 10 and 40 µM
Text: (§4) Although the literature describes the retention of such peptides properties to inhibit a phosphorylating function for cyclin-dependent kinases, this was confirmed in cell extracts. We monitored changes in the level of pRB phosphorylation - molecular target of type D cyclin kinase against the background of the investigated peptides, including the sequences, having homology with p16INK4a, at the cellular level with the help of flow cytometry method.
(§5) Flow cytometry allows to render the cells, where the pRb product is in the "underphosphorylated" state. The fluorescently labeled antibodies interact with "underphosphorylated" pRb.
(§6) To determine the amount of "underphosphorylated" pRb, a series of experiments was performed, where the study peptide sequences were added to the cell cultures, synchronized with the help of depleted cell culture medium method (MCF-7, HCT-116), after removing the synchronization block, then the cells were sampled every two hours. A part of the cells from each plate was fixed to further define the phases of the cell cycle, and to determine the amount of the "underphosphorylated" pRb. Also a negative control was set in the form of synchronized cells samples, but without added peptide. It was shown that introduction of the peptide sequences into the cell culture inhibits the pRb phosphorylation and reduces its maximum level in the culture (Figure 19).

pRb in HCT-116 = experiment: Level of underphosphorylated pRb by flow cytometry; assay type: cell-based, human
Text: as §4, §5, §6
As it is seen in Figure 19, the level of "underphosphorylated" pRb begins to grow after removal of the synchronization block in the control samples without addition of the peptide, and to a certain point (4 or 6 hours of incubation), depending on the cell line, it reaches a maximum and then begins to decline. In the samples with peptides the level of "underphosphorylated" pRb begins to increase later and reaches its maximum after 12-18 hours of incubation, the delay in reaching the maximum level of pRb depends on concentration of the peptide sequences. […] We analyzed the level of "underphosphorylated" pRb every two hours; the maximum incubation time was 24 hours.

pRb in SKOV cell line = experiment: Level of underphosphorylated pRb by flow cytometry; assay type: cell-based; conditions: 10 and 40 µM
Procedure: as §5
In the study of the "underphosphorylated" pRb level using SKOV cell line, the delay effect in formation of "underphosphorylated" pRb was lower than for cultures MCF-7 and HCT-116, although this cell line was previously shown to have the proliferation delay effect during incubation of the cells with the study peptide sequences. […] Obvious "underphosphorylated" pRb formation delay effect compared to the control sample, however, in the case of SKOV cell line, was somewhat lower than that of cultures of MCF-7 and HCT-116.

MCF-7 (breast cancer) [3] = experiment: Combined effect with Taxol or 5-fluorouracil, Annexin and propidium iodide flow cytometry; assay type: cell-based; conditions: 10, 20, 30 µM, 24 hours
Procedure: In cell culture MCF-7 (breast cancer) there was investigated the combined effect of DA, 5-fluorouracil and Taxol, and the sequences D37K and F26K-2 (in the cytotoxicity studies the sequence had the most pronounced effect on the MCF-7 culture). The cells were grown in 24-well plates to 70% of the monolayer, followed by replacement of the medium with the medium containing the target sequence and drugs in concentrations of 10, 20 and 30 µM. The incubation time was 24 hours. Analyzed cells, which entered into apoptosis, were detected using Annexin and propidium iodide staining, flow cytometry.

## H-FLDAILLI[Ahx] [F26K-2]
[1]
  apoptosis level (Annexin V): more pronounced pro-apoptosis effect
MCF-7 (breast cancer) [2]
  apoptosis level (Annexin V): more pronounced pro-apoptosis effect
HCT-116; 10 and 40 µM
  antiproliferative effect: most clear antiproliferative effect
HCT-116; synchronized culture, 40 µM (Fig. 10)
  delay in cells leaving the rest phase: 8 to 12 h
MCF-7
  antiproliferative effect: most clear antiproliferative effect
SKOV (ovarian cancer)
  antiproliferative effect (cells in G0/G1 and S+G2/M): caused the delay of proliferation
Bcl-2 in HCT-116 cells; 10 and 40 µM
  inhibition of the expression of Bcl-2 protein: strongest inhibition
Bcl-2 in HCT-116 cells; 40 µM
  decrease of the level of Bcl-2-positive cells: over 15%
pRb in MCF-7
  delay in the formation of "underphosphorylated" pRb: greatest delay
pRb in HCT-116; 10 and 40 µM
  delay in formation of "underphosphorylated" pRb: greatest effect of the delay
pRb in HCT-116; peptide 10 µM
  incubation time of maximum level of "underphosphorylated" pRb: 16 hours
pRb in HCT-116; peptide 40 µM
  incubation time of maximum level of "underphosphorylated" pRb: 20 hours
pRb in SKOV cell line
  delay in formation of "underphosphorylated" pRb as compared to the control: 4-10 hours
MCF-7 (breast cancer) [3]
  combined use with 5-fluorouracil, cytotoxic effect: linear amplification
  combined use with Taxol, level of apoptosis: summation of cytotoxic effects
